Measurements published in patent EP2100593B1, “Ternary mixtures with increased collagen synthesis” (Symrise AG, priority 2008, dated 2009).
“And” between values parts separate entries of the source, which are not always exact repeats. Equal entries are not always repeated.

Test system: Normal Humane Dermalen Fibroblasten (NHDF)
Test: Collagen synthesis stimulation in aged NHDF monolayer culture, Sirius Red staining (OD 540 nm)
Type: cell-based, Human
Conditions: 48 h incubation
Description: Verantwortlich für die Collagensynthese in der Dermis-Schicht der Haut sind Fibroblasten. Als Testsystem werden Normal Humane Dermalen Fibroblasten (NHDF) in einer so genannten Monolayer-Kultur in 96-Well-MTPs kultiviert, über einen definierten Zeitraum mit Testsubstanzen inkubiert und anschließend die Collagenzunahme […] über eine Färbemethode bestimmt.
Das Assay-Prinzip basiert auf der histologischen, spezifischen Anfärbung von löslichem Collagen (vorwiegend Collagen Typ I und III) mit Hilfe des Farbstoffes Sirius Red (Direct Red 80). Sirius Red ist ein anionischer Farbstoff an dessen Seitenketten Sulphonsäuregruppen angelagert sind. Diese Sulphonsäuregruppen reagieren mit den Seitenkettengruppen der im Collagen vorwiegend vorkommenden Aminosäuren (Prolin, Hydroxyprolin, Lysin und Hydroxylysin), wobei eine intakte Collagenstruktur gegeben sein muss. [drawing 1]
Als Vorlage für das Assay-Design dient die bei B.J.Walsh et al., Analytical Biochemistry 203, 187-190 (1992) beschriebene Vorgehensweise zur quantitativen Bestimmung von Collagen im 96-Well Maßstab.
Die Collagensynthese steigernde Wirkung der Testsubstanzen wird an in vitro gealterten (>8. Passage) NHDF in 96-Well Mikrotiterplatten (2*10^4 Zellen pro Well) getestet. Für jedes Prüfmuster muss zuvor ein geeignetes Lösungsmittel ermittelt werden, in dem eine Stocklösung des Prüfmusters angesetzt wird. Die Inkubationslösungen der Testsubstanzen werden anschließend in mit 0,2% BSA supplementiertem DMEM hergestellt. Mögliche Lösungsmittel sollten in allen Verdünnung der Inkubationslösung max. 0,2 %ig vorliegen. Die maximale Einsatzkonzentration der Testsubstanzen resultiert aus den in der Zytotoxizitäts-Untersuchung (Resazurin-Assay an 3T3 Maus Fibroblasten) gewonnen IC20-Werten und ist auf 0,1*IC20 festgelegt.
Nach einer 24h-igen Adaptionsphase der NHDF werden die Zellen für 48 h mit den Inkubationslösungen und entsprechenden Kontroll-Lösungen (Lösungsmittel und Blank) inkubiert (37°C, 5% CO2). […]

[1] = Tabelle 2, Einsatzkonzentration 1.020 mg/ml

SMILES | Collagensynthese Steigerung [%], bezogen auf unbehandelte Kontrolle (Tabelle 1, Einsatzkonzentration 0.362 mg/ml) | Collagensynthese Steigerung [%], bezogen auf unbehandelte Kontrolle [1]
O=C1O[C@H]([C@@H](O)CO)C(O)=C1OP(=O)(O)O [Magnesium Ascorbylphosphat (Bio172), Magnesium Ascorbylphosphat] | 66.97% and 67.44% | 
O=C1O[C@H]([C@@H](O)CO)C([O-])=C1OP(=O)([O-])[O-].O=C1O[C@H]([C@@H](O)CO)C([O-])=C1OP(=O)([O-])[O-].[Mg+2].[Mg+2].[Mg+2] [Magnesium Ascorbylphosphat (Bio1300/1), Magnesium Ascorbylphosphat] |  | 141.13%
O=C1O[C@H]([C@@H](O)CO)C([O-])=C1OP(=O)([O-])[O-].[Na+].[Na+].[Na+] [Natrium Ascorbylphosphat (Bio1586), Natrium Ascorbylphosphat] |  | 144.57%
